Each structure is given as a SMILES string. Calls of active or inactive are those of the source.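 The calls were made as follows: active = a full or partial dose-response curve in at least two of three replicate runs; inactive = the rest.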

For the assay, the target named is D(1B) dopamine receptor (Homo sapiens) (UniProt P21918). The assay is described as follows: D5 receptor allosteric modulators, concentration-response – cell-based, HEK293, CRE-luciferase, luminescence, EC30 dopamine, selectivity assay for D1 allosteric modulator project, dose response (AID 857).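 Also: HEK 293 cells expressing human D5 with a CRE-driven luciferase reporter.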
D(1B) dopamine receptor (Homo sapiens), sequence (P21918 whole entry, looked up): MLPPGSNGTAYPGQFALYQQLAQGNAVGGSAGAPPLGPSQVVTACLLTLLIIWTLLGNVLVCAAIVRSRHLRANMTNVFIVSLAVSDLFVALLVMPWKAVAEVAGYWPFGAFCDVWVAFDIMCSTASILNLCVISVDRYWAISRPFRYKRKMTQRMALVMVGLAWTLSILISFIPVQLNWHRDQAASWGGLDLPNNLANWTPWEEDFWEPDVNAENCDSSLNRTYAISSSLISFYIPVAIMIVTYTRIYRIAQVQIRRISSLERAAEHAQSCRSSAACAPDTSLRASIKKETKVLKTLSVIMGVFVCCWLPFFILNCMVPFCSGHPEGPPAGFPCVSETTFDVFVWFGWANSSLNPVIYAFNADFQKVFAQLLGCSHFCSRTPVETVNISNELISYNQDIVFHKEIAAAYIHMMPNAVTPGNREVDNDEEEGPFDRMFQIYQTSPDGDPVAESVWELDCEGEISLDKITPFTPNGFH
For `CC(=O)C1=C(C)NC(SCC(=O)c2ccc(F)cc2)=C(C#N)C1c1ccco1` (configuration not stated), the outcome was inactive. On to `CCOC(=O)c1c(C)c(C(=O)NCc2ccccc2OC)c(C)n1C`, for which the result was inactive.

Consider `CCn1c(=O)c(C(=O)NCc2cccnc2)c(O)c2ccccc21`, for which the outcome was inactive. With `COC(=O)c1ccc(CSc2nc3c(cnn3-c3ccc(F)cc3)c(=O)[nH]2)o1`, the outcome was inactive. On to `Cc1cc(C)n(CC(=O)n2c3c(c4ccccc42)CCCC3)n1`, for which the result was inactive. Still for that read-out and setting: in the case of `Cc1cc(SCC(=O)N2CCC(c3noc4ccc(F)cc34)CC2)nc2ccccc12` it was “inactive”. Still for that read-out and setting: under `O=C(c1cccn2c(=O)c3cc(Cl)ccc3nc12)N1CCN(Cc2ccc3c(c2)OCO3)CC1` stands “inactive”. On the same count and under the same terms, in the case of `O=S(=O)(c1ccccc1)c1nc(-c2ccco2)oc1N1CCCCCC1` it was “inactive”. Broadly, the EC50 is the concentration at which the effect is half-maximal. In the case of `Cc1c(-c2ccccc2)nc(N)c(C#N)c1-c1ccco1`, the concentration for a half-maximal effect (EC50) was 2.01 µM. For `CC(=O)Nc1nc2n(n1)C(c1ccccc1)C=C(c1ccccc1)N2` (configuration not stated), the result was inactive. On to `Cn1c(=O)c2c(SCc3ccccc3)nc(-c3ccco3)nc2n(C)c1=O`, for which the outcome was inactive. Same read-out and setting: in the case of `COc1ccccc1CNC(=O)c1ccc(NS(=O)(=O)c2c(C)noc2C)cc1` it was “inactive”. In the case of `CCOc1ccc(CC(=O)Nc2c(C(N)=O)oc3ccccc23)cc1OCC`, the outcome was inactive.

Consider `COc1ccc(-c2nnc(-c3ccc(Br)o3)o2)cc1OC`, for which the outcome was inactive. The same measure, in the same setting: under `CCc1nc(N)c(C#N)c(-c2ccncc2)c1C` stands “inactive”; under `Cc1csc2c(C#N)c(=O)c3c(n12)CCC3`, “inactive”; under `OCCn1nc2c3ccccc3nc-2n(-c2ccccc2)c1=S`, “inactive”. In the case of `Cc1cc(=O)oc2cc(OCC(=O)NCCc3nc4ccccc4[nH]3)ccc12`, the result was inactive.

With `O=C1OCCC1Sc1ncnc2sc3c(c12)CCC3` (configuration not stated), the outcome was inactive. Regarding `Cc1ccc(Oc2ccccc2)c(NC=O)c1`, the outcome was inactive. Take `Cc1ccc(CNc2nc3ccccc3n3nnnc23)cc1`: the result was inactive. Take `COc1ccc(C(=O)Nc2nnc(Cc3cccs3)s2)cc1OC`: the outcome was inactive.

Turning to `COc1cccc(-c2nnc(SCC(=O)Nc3cc(C)on3)o2)c1`, the outcome was inactive. On the same count and under the same terms, under `CCOc1ncccc1C(=O)OCc1nnc(-c2ccccc2)o1` stands “inactive”; under `Cc1c(C)c2ccc(OC3CCCCC3=O)cc2oc1=O` (configuration not stated), “inactive”. For `CCCC(=O)Nc1ccc(NC(=O)C2CC2)cn1`, the result was inactive.

Consider `C=CCNC(=O)c1ccccc1NC(=O)c1ccccc1`, for which the outcome was inactive.

As to `CCC(=O)n1nc(-c2ccco2)nc1N`, the result was inactive. On to `CCOC(=O)N1CCC(NC(=O)c2cccc3c2C(=O)N(Cc2cccnc2)C3)CC1`, for which the outcome was inactive. The same measure, in the same setting: in the case of `COC(=O)c1ccc(OCCn2cnc3ccccc3c2=O)cc1` it was “inactive”. In the case of `Cc1ccc(CCNS(=O)(=O)c2cnc[nH]2)cc1`, the result was inactive.

Turning to `CC(=O)c1nn(-c2cccc(Cl)c2)cc1C(=O)c1ccco1`, the outcome was inactive. The same measure, in the same setting: in the case of `COc1ccc2[nH]c(=O)c(CN(Cc3cccs3)Cc3nnnn3C(C)(C)C)cc2c1` it was “inactive”; in that of `Cc1nc2ccc(CCO)cc2s1`, “inactive”.

With `CCOC(=O)CSc1nc2c(sc(=S)n2Cc2ccco2)c(=O)n1-c1ccccc1`, the outcome was inactive.

As for `Cc1cc(=O)c2n(Cc3ccc(Cl)cc3)nc[n+]2[nH]1`, the result was inactive. Consider `Cc1nnc(SCCn2c(N3CCCC(C)C3)nc3c2c(=O)[nH]c(=O)n3C)s1` (configuration not stated), for which the result was inactive. The same measure, in the same setting: in the case of `O=C(CC1SC(=NC2CCCCC2)NC1=O)Nc1ccccc1` (configuration not stated) it was “inactive”. Still for that read-out and setting: under `N#CCCN1CCN(S(=O)(=O)c2ccc(S(=O)(=O)NC3CCCCC3)cc2)CC1` stands “inactive”; under `Cc1ccc(-c2cc(-c3ccc(C)o3)nc(N)c2C#N)cc1`, “inactive”. For the compound `CC(=O)Oc1c(Cl)c(N2CCOCC2)c(OC(C)=O)c2ccccc12`, the result was inactive. Still for that read-out and setting: in the case of `NC(=O)COc1ccc(NC(=O)OCc2ccccc2)cc1` it was “inactive”; in that of `COCCNC(=O)c1c(NC(=O)c2ccco2)n(Cc2ccccc2)c2nc3ccccc3nc12`, “inactive”; in that of `COc1ccc(-c2csc3nc(C)n(-n4cccc4)c(=O)c23)cc1OC`, “inactive”. In the case of `Cn1cccc1C1NC(=O)c2c(sc3c2CCC(C(C)(C)C)C3)N1` (configuration not stated), the outcome was inactive. For the compound `CC(=O)c1cc(C#N)c(SCC(=O)OC(C)(C)C)nc1C`, the result was inactive. Still for that read-out and setting: under `CCOC(=O)c1oc2ccc(S(=O)(=O)N3CCOCC3)cc2c1C` stands “inactive”. Consider `COC(=O)c1ccccc1NC(=O)c1ccc2c(c1)OCCO2`, for which the result was inactive. On the same count and under the same terms, under `Fc1ccc(NC2=NCCS2)cc1Cl` stands “inactive”; under `COc1ccc(S(=O)(=O)N(C)c2ccc(C(=O)N3CCOCC3)cc2)cc1OC`, “inactive”; under `CC1(C)CN=C(Nc2nc3ccccc3s2)S1`, “inactive”. Still for that read-out and setting: in the case of `NC(=O)c1oc2ccccc2c1NC(=O)c1ccc(F)cc1` it was “inactive”; in that of `N#CC1=C(N)n2c(s/c(=C\c3ccco3)c2=O)=C(C#N)C1c1ccco1` (configuration not stated), “inactive”; in that of `COC(=O)c1sc2ccccc2c1C(=O)OC`, “inactive”. Same read-out and setting: in the case of `CCOC(=O)c1[nH]c2ccccc2c1NC(=O)C(C)(C)C` it was “inactive”. Regarding `COc1ccc(Cl)cc1C(=O)CSc1nnnn1C1CCCC1`, the EC50 was 0.661 µM. As for `CC(C)C1C2=C(CC(C)(C)CC2=O)ON1c1ccccc1` (configuration not stated), the outcome was inactive.

Turning to `COc1ccccc1NC(=O)CC1Nc2ccccc2NC1=O` (configuration not stated), the outcome was inactive. Regarding `COc1ccc(-c2c3c(=O)n(C)c(=O)n(C)c3cn2-c2ccccc2)cc1`, the outcome was inactive. Same read-out and setting: in the case of `CC1CCCCN1C(=O)CSc1nc(C2CC2)nc2c1cnn2-c1ccccc1` (configuration not stated) it was “inactive”.

With `CSc1nncc(-c2ccc(F)c(F)c2)n1`, the outcome was inactive.

Consider `COc1ccc(OC)c(N2C(=O)C(Cl)=C(N3CCCCC3)C2=O)c1`, for which the outcome was inactive. For `COc1ncnc2c1N=C1CC(C)(C)CC(N)=C1S2`, the result was inactive. On to `CC(C)Oc1ccccc1C1CC(=O)Nc2cc3c(cc21)OCCO3` (configuration not stated), for which the result was inactive.

As to `CC(C)Cn1c(-c2cccs2)nc2nc3ccccc3nc21`, the outcome was inactive. With `C(=N\C(/N=C/c1ccco1)c1ccco1)/c1ccco1`, the result was inactive.

As to `CCOc1ccc(-c2nnn(CC(=O)NCc3ccc(OC)cc3)n2)cc1OCC`, the EC50 is 0.473 µM. Take `CC(C)OC(=O)CSc1nnc(-c2cnccn2)n1-c1ccccc1`: the result was inactive. Same read-out and setting: under `COc1cc2c(cc1OC)C(C(=O)Nc1ccc3c(c1)OCCO3)C1c3ccccc3CCN1C2=O` (configuration not stated) stands “inactive”; under `CCCn1c(SCC(=O)Nc2sc(C)c(C)c2C(=O)OCC)nc2c1c(=O)n(C)c(=O)n2C`, “inactive”. With `N#CC1=C(N)N(c2ccccc2)C2=C(C(=O)CCC2)C1c1ccsc1` (configuration not stated), the result was inactive. On the same count and under the same terms, in the case of `N#CC1=C(N)Oc2nc(-c3ccccc3)[nH]c2C1c1cccnc1` (configuration not stated) it was “inactive”. `CC1=CC(C)(C)N=C(NC#N)N1`: the result was inactive. Consider `CCOC(=O)CN(C(=O)CSc1nnc(-c2ccc(OC)c(OC)c2)o1)c1ccc(F)cc1`, for which the outcome was inactive. Take `COCc1cc(C)nc2sc(C(=O)N3CCN(c4ccccc4)CC3)c(N)c12`: the EC50 was 0.212 µM. As to `CCOC(=O)N1CCN(C(=O)C(C)(C)Oc2ccc(Cl)cc2)CC1`, the result was inactive. `Cc1c(C(=O)OCC(C)C)[nH]c2c1C(=O)CC(c1ccco1)C2` (configuration not stated): the EC50 is 1.75 µM.

In the case of `CCOC(=O)c1nn(-c2ccc(OC)cc2)c(=O)c2c(N)scc12`, the outcome was inactive. On to `CCC(=O)NC(=Nc1nc2ccccc2s1)NC(=O)CC`, for which the EC50 is 1.9 µM. Take `Cc1nn2c(N3CCCC3)cc(C(C)C)nc2c1-c1ccccc1`: the result was inactive. Consider `CCOc1ccc(-c2noc(COC)n2)cc1OC`, for which the outcome was inactive. For `O=C(OCC#CCSc1nnc(-c2ccc(Br)cc2)o1)c1ccco1`, the outcome was inactive.

In the case of `Cc1ccc(Nc2nnc(SCc3cc(=O)n4ccsc4n3)s2)c(C)c1`, the outcome was inactive.

Take `COc1ccc(CN(Cc2cccnc2)S(=O)(=O)c2ccc(-n3cnnn3)c(C)c2)cc1OC`: the result was inactive. Consider `CCOC(=O)C1CCCN(C(=O)c2cc(Cl)ccc2Cl)C1` (configuration not stated), for which the outcome was inactive. With `N#CCSc1nc2c(sc(=S)n2Cc2ccco2)c(=O)n1-c1ccc(F)cc1`, the result was inactive. With `COC(=O)c1cccc(N2C(=O)C(Cl)=C(N3CCOCC3)C2=O)c1`, the result was inactive. Turning to `O=C1C(Cl)=C(NCC2CCCO2)C(=O)N1Cc1ccccc1` (configuration not stated), the outcome was inactive. Regarding `O=C(CCc1ccc(CCC(=O)c2cccs2)s1)c1cccs1`, the result was inactive.

`C=CCn1c(SCC(=O)Nc2sc(C)c(C)c2C(=O)OCC)nnc1-c1sc(N)nc1C`: the result was inactive. On the same count and under the same terms, in the case of `CC(C)C1C(C#N)=C(N)Oc2n[nH]c(-c3ccccc3)c21` (configuration not stated) it was “inactive”. Regarding `COCCCNc1nc2ccccc2nc1NS(=O)(=O)c1cccs1`, the result was inactive. In the case of `O=C(CCSc1nc2ccccc2o1)N1CCOCC1`, the result was inactive. On the same count and under the same terms, under `CCc1nn(CCCC(=O)N2CCc3ccccc3C2)c(=O)c2cc3occc3n12` stands “inactive”. Take `Clc1ccc(-n2nnnc2-c2ccccc2)cc1`: the outcome was inactive. As for `c1ccc(-c2nc3nonc3nc2-c2ccccc2)cc1`, the outcome was inactive. The same measure, in the same setting: under `N#Cc1c2c(nc(N)c1-c1ccccc1)CCCCC2` stands “inactive”.

Source of the values: PubChem BioAssay AID857 (Vanderbilt High Throughput Screening Facility, 2007).
